According to paper PMC10149936, “Cofilin activation in pancreatic acinar cells plays a pivotal convergent role for mediating CCK-stimulated enzyme secretion and growth” (Frontiers in Physiology, 2023):

Columns and labels:
[1] = system: actin-cofilin interaction in fibroblasts; details: ref Shoji et al., 2012; cited from earlier work
[2] = system: epithelial cells; details: ref Matsubayashi et al., 2004; cited from earlier work
[3] = system: cofilin / PP1 association; assay: co-immunoprecipitation of cofilin with PP1 in pancreatic acini; type: cell-based, rat; details: CCK-8 100 nM, 3 min
Experimental: For co-immunoprecipitation, 600 μg of protein was incubated with 15 μL of the anti-cofilin antibody (Santa Cruz Biotechnology, Inc. Dallas, TX) and 25 μL of protein A/G agarose beads (Thermo-Fisher Scientific. Waltham, MA) overnight at 4°C under agitation. Samples were washed three times with lysis buffer, re-suspended in 12.5 μL of Sample Buffer, Laemlii 2x concentrate and boiled for 5 min before western blotting.
FIGURE 6 Effect of CCK-8 (100 nM) to alter co-immunoprecipitation of cofilin with total PP2A (A) or PP1 (B). Isolated pancreatic acini were incubated in the absence or presence of CCK-8 (100 nM) for 3 min and then lysed. Equal amounts of protein were co-immunoprecipitated with an anti-cofilin (Santa Cruz, SC-376476) and then subjected to Western blots using anti-PP2A and anti-PP1. Bands were visualized using chemiluminescence and quantified by densitometry. Top: Results of a representative blot of four independent experiments are shown. Bottom: Means ± S.E. of at least 4 independent experiments. Results are expressed as % of basal stimulation of the control group. N.S., No significant. […] Lysates were analyzed using cofilin (pS3), Total cofilin, PP2A (pY307), Total PP2A, PP1(pT320), Total PP1 and tubulin. […]

| Compound | effect on interaction between actin and cofilin [1] | effect on cell migration [2] | effect on PP1 co-immunoprecipitation with cofilin [3] |
| --- | --- | --- | --- |
| C=C1[C@@H](C)[C@H]2[C@H](Cc3ccccc3)NC(=O)[C@]23[C@H](OC(C)=O)/C=C/[C@@](C)(O)C(=O)[C@@H](C)C/C=C/[C@H]3[C@@H]1O [Cytochalasin D] | inhibits the interaction between actin and cofilin | completely blocked cell migration | – |
| COOH-terminal octapeptide of cholecystokinin [CCK-8] | – | – | had no effect |
